Data on one molecule can be found in patent publication US7494821B2, “Fluorescein based sensors for tracking nitric oxide in live cells” (Massachusetts Institute of Technology, priority 2005, dated 2009).

Data set [1] in a line: Specificity for NO over other reactive nitrogen and oxygen species. Conditions: 100 equivalents of O2−, ClO−, H2O2, HNO, NO2−, NO3−, ONOO−, 2 h, pH 7.0 buffer, 1 μM. On the procedure:
FIG. 6 illustrates the specificity of Cu(FL5) for NO over other reactive nitrogen and oxygen species. The fluorescence response of Cu(FL5) was determined after addition of 100 equivalents of O2^−, ClO^−, H2O2, HNO (Angeli's salt Na2N2O3), NO2^−, NO3^−, and ONOO^− for 2 h in buffered aqueous solution (50 mM PIPES, pH 7.0, 100 mM KCl). The excitation wavelength was 503 nm. All data (F) are normalized with respect to the emission of Cu(FL5) (F(Cu(FL5))). [Cu(FL5)]=1 μM. Error bars indicate s.d.
The fluorescence of a 1 μM FL5 solution was diminished by 18±3% upon introduction of an equimolar quantity of CuCl2 at 37° C. Addition of excess NO to a buffered aqueous Cu(FL5) solution led to an immediate 11.2±1.5-fold increase in fluorescence (FIG. 5). […] The lower detection limit for NO is 5 nM.

Data set [2] can be described thus: Cell membrane passage in live cell studies. The data set is classed as cell-based. The source says: In summary, we have synthesized a Cu(II)-based fluorescein compound Cu(FL5) for imaging NO based on redox chemistry. Reduction of Cu(FL5) by NO to Cu(I) with nitrosation of the FL5 ligand is accompanied by bright visible light emission. […] Studies of Cu(FL5) in pH 7.0 aqueous buffered solutions indicate that the NO response is direct, rapid, and specific.

For `Cc1ccc2cccc(NCc3c([O][Cu][Cl])ccc4c(-c5ccccc5C(=O)O)c5cc(Cl)c(=O)cc-5oc34)c2n1` [Cu(FL5)], in data set [1], the “fluorescence response specificity for NO over other reactive species” value is given as “detects NO specifically”. For the same molecule, in data set [2], the “passage through cell membranes” value is recorded as “readily passes through cell membranes”.
